Molecular target: cathepsin S (CTSS) (Homo sapiens, UniProt P25774)
Assay: cell-free enzyme assay with recombinant CTSS
Format: biochemical

Sequence of cathepsin S (CTSS) (P25774 115-331): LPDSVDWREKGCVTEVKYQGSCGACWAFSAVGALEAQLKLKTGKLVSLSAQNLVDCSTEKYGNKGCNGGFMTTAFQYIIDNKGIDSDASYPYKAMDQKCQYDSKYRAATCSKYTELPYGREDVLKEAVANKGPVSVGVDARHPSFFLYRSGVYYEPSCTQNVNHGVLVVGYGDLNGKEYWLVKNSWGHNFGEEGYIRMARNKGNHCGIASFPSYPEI

Structure (SMILES): CN1CCN(C(=O)N[C@@H](Cc2ccccc2)C(=O)N[C@H](/C=C/S(=O)(=O)c2ccccc2)CCc2ccccc2)CC1 [K11777]
- EC50: 900 nM

— PMC11486972 (Hepatology (Baltimore, Md.), 2024)
